Laboratory results from patent EP4603105A1, “PHARMACEUTICAL COMPOSITION CONTAINING CYCLIC COMPOUND HAVING SELECTIVE KRAS INHIBITORY EFFECT AGAINST HRAS AND NRAS” (CHUGAI SEIYAKU KABUSHIKI KAISHA, priority 2022, dated 2024).
Where a SMILES comes first, the peptide text is derived from it. Bridges are numbered along the chain shown (N, C = ends). [ ]: non-standard residue; d: D form. The star is where a group is joined. hPhe(3-Cl-4-CF3) = N[C@@H](CCc1ccc(C(F)(F)F)c(Cl)c1)C(=O)O; NPrPhe(4-CF3) = CCCN[C@@H](Cc1ccc(C(F)(F)F)cc1)C(=O)O; NMeGly(cPent) = CN[C@H](C(=O)O)C1CCCC1; Pro(4,4-F2) = O=C(O)[C@@H]1CC(F)(F)CN1; Hyp = O=C(O)[C@@H]1C[C@@H](O)CN1; NMeD = CN[C@@H](CC(=O)O)C(=O)O; NMeL = CN[C@@H](CC(C)C)C(=O)O; Morpholide = C1CN(*)CCO1; Ac5c = NC1(C(=O)O)CCCC1; Aze = O=C(O)[C@@H]1CCN1; Ac4c = NC1(C(=O)O)CCC1; Sar = CNCC(=O)O

How the values were obtained:
[1] = target: GDP-bound NRAS wild-type protein (Homo sapiens, UniProt P01111); test: Binding to NRAS by surface plasmon resonance (SPR), KD and KD ratio to KRAS
Outline: (§1)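 Recombinant RAS proteins bearing a biotinylated Avi tag and loaded with GDP served as the captured ligand, recaptured fresh every cycle. Binding responses were referenced to an uncoated surface and a buffer-only blank cycle. Dissociation constants were obtained by 1:1 model fitting at 30°C.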

[2] = target: GDP-bound KRAS wild-type protein (Homo sapiens, UniProt P01116); test: Binding to KRAS by surface plasmon resonance (SPR), dissociation constant KD
Outline: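 Read-out is KD from 1:1 fitting of single-cycle kinetics sensorgrams, blank-cycle and reference-surface corrected. Proteins were GDP-loaded, biotinylated Avi-fusions freshly captured each cycle at roughly 100–300 RU. Runs were at 30°C in HBS pH 7.4 with MgCl2, GDP and 4% DMSO.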

[3] = target: HRAS wild-type protein (Homo sapiens, UniProt P01112); test: Binding to HRAS by surface plasmon resonance (SPR), KD and KD ratio to KRAS
Outline: as §1

[4] = system: human lung cancer strain NCI-H441; format: cell-based
Outline: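 Signal came from […] measured per well once the reagent was added. Beforehand, cells were cultured at 37°C and 5% carbon dioxide on a compound series serially diluted in dimethyl sulfoxide.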

[5] = ratio of KD for GDP-bound NRAS wild-type protein to KD for KRAS
[6] = ratio of KD for HRAS wild-type protein to KD for KRAS
[7] = ratio of KD value for GDP-bound NRAS wild-type protein to KD value for KRAS (SPR)
[8] = Single Cycle Kinetics, 1:1 binding model
[9] = ratio of KD value for HRAS wild-type protein to KD value for KRAS (SPR)
[10] = ratio of the KD value with respect to GDP-bound NRAS wild-type protein to the KD value with respect to KRAS
[11] = ratio of the KD value with respect to HRAS wild-type protein to the KD value with respect to KRAS

GDP-bound KRAS wild-type protein, sequence (P01116 1-188 isoform P01116-2): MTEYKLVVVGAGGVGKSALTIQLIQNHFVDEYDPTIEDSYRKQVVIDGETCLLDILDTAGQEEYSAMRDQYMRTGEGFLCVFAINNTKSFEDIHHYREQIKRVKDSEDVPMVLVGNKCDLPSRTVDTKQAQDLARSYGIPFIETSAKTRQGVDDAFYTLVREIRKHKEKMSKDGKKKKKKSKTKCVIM
GDP-bound NRAS wild-type protein, sequence (P01111 whole entry): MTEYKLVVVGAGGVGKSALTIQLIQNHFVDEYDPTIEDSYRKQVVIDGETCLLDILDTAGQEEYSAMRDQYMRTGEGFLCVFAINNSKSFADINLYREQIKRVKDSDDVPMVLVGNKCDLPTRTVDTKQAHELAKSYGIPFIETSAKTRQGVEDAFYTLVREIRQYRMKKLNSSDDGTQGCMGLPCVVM
HRAS wild-type protein, sequence (P01112 whole entry): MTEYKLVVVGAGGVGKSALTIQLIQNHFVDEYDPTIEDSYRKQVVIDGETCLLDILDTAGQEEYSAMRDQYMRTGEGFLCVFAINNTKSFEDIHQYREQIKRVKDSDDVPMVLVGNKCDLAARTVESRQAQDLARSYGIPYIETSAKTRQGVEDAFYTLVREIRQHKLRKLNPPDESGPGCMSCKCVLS

| Kd ([2]; 1:1 binding model) | IC50 [4] | Kd [2, 8] | Kd ([2]; Single Cycle Kinetics) | SMILES | NRAS /KRAS [1, 5] | HRAS /KRAS [3, 6] | NRAS /KRAS [1, 7] | HRAS /KRAS [3, 9] | NRAS /KRAS [1, 10] | HRAS /KRAS [3, 11] |
| --- | --- | --- | --- | --- | --- | --- | --- | --- | --- | --- |
| 0.12 nM | 18.5 nM |  |  | CCO[C@@H]1C[C@H]2C(=O)NC3(CC(C)(C)C3)C(=O)N(C)[C@@H](C3CCCC3)C(=O)N(C)[C@H](C(=O)N(C)C)CC(=O)N(C)[C@@H]([C@H](C)OC)C(=O)N[C@@H]([C@@H](C)CC)C(=O)N(C)CC(=O)N(C)[C@H]3C/C=C\CCN(C3=O)[C@@H](Cc3ccc(C)cc3)C(=O)N(C)CC(=O)N[C@@H](CCc3ccc(C(F)(F)F)c(Cl)c3)C(=O)N2C1 [PP3189] | A (a compound having 10 or more and less than 20 is denoted as A) | A (a compound having 10 or more and less than 20 is denoted as A) |  |  |  |  |
|  | 8.7 nM | 0.06 nM |  | CCC[C@H]1C(=O)N[C@@H]([C@@H](C)CC)C(=O)N(C)CC(=O)N(C)[C@H]2C/C=C\CCN(C2=O)[C@@H](Cc2ccc(C)cc2)C(=O)N(C)CC(=O)N[C@@H](CCc2cc(F)c(C(F)(F)F)c(F)c2)C(=O)N2CCC[C@H]2C(=O)N(C)C2(CCC2)C(=O)N(C)[C@@H](C2CCCC2)C(=O)N(C)[C@H](C(=O)N(C)C)CC(=O)N1C [PP1794] |  |  | A (a compound having 10 or more and less than 20 is denoted as A) | B (a compound having 3 or more and less than 10 is denoted as B) |  |  |
| 0.67 nM | 26.6 nM |  |  | CCCN1C(=O)[C@@H]2CCN2C(=O)[C@@H]2CCN2C(=O)[C@H]([C@@H](C)CC)NC(=O)[C@H](CC(C)C)N(C)C(=O)C[C@@H](C(=O)N2CCOCC2)N(C)C(=O)[C@H](C2CCCC2)N(C)C(=O)C2(CCCC2)NC(=O)[C@@H]2CCCN2C(=O)[C@H](CCc2ccc(C(F)(F)F)c(Cl)c2)NC(=O)CN(C)C(=O)[C@@H]1Cc1ccc(C(F)(F)F)cc1 [PP0168] ([NMeL]I[Aze][Aze][NPrPhe(4-CF3)][Sar][hPhe(3-Cl-4-CF3)]P[Ac5c][NMeGly(cPent)][NMeD]-Morpholide; lactam N-11) | C (A compound having a KD ratio of 0.1 or more and less than 3 is denoted as C) | B (a compound having 3 or more and less than 10 is denoted as B) |  |  |  |  |
|  | 20.3 nM | 0.52 nM |  | CCO[C@@H]1C[C@H]2C(=O)NC3(CCC3)C(=O)N(C)[C@@H](C3CCCC3)C(=O)N(C)[C@H](C(=O)N(C)C)CC(=O)N(C)[C@@H](CC(C)(C)C)C(=O)N[C@@H]([C@@H](C)CC)C(=O)N(C)CC(=O)N(C)[C@H]3CCCCCN(C3=O)[C@@H](Cc3ccc(C(F)(F)F)cc3)C(=O)N(C)CC(=O)N[C@@H](CCc3cc(F)c(C(F)(F)F)c(F)c3)C(=O)N2C1 [PP0669] |  |  |  |  | B (a compound having 3 or more and less than 10 is denoted as B) | B (a compound having 3 or more and less than 10 is denoted as B) |
|  | 16 nM | 0.12 nM |  | CCCN(C)C(=O)[C@@H]1CC(=O)N(C)[C@@H](C2CC2)C(=O)N[C@@H]([C@@H](C)CC)C(=O)N(C)CC(=O)N(C)[C@H]2C/C=C\CCN(C2=O)[C@@H](Cc2ccc(C(F)(F)F)cc2)C(=O)N(C)CC(=O)N[C@@H](CCc2cc(F)c(C(F)(F)F)c(F)c2)C(=O)N2C[C@H](OCC)C[C@H]2C(=O)NC2(CC(C)(C)C2)C(=O)N(C)[C@@H](C2CCCC2)C(=O)N1C [PP2037] |  |  |  |  | A (a compound having 10 or more and less than 20 is denoted as A) | A (a compound having 10 or more and less than 20 is denoted as A) |
| 0.34 nM | 8.7 nM |  |  | CCO[C@@H]1C[C@H]2C(=O)NC3(CCC3)C(=O)N(C)[C@@H](C(CC)CC)C(=O)N(C)[C@H](C(=O)N(C)C)CC(=O)N(C)[C@H]3CCCC/C=C/c4ccc(cc4)C[C@@H](C(=O)N(C)CC(=O)N[C@@H](CCc4ccc(Cl)c(Cl)c4)C(=O)N2C1)N1CC/C=C\C[C@@H](C1=O)N(C)C(=O)CN(C1CC1)C(=O)[C@H]([C@@H](C)CC)NC3=O [PP2605] | AA (a compound having 20 or more is denoted as AA) | A (a compound having 10 or more and less than 20 is denoted as A) |  |  |  |  |
|  | 6.7 nM | 0.044 nM |  | CC[C@H](C)[C@@H]1NC(=O)[C@H](CC)N(C)C(=O)C[C@@H](C(=O)N(C)C)N(C)C(=O)[C@H](C2CCCC2)N(C)C(=O)C2(CCC2)N(C)C(=O)[C@@H]2CCCN2C(=O)[C@H](CCc2cc(F)c(C(F)(F)F)c(F)c2)NC(=O)CN(C)C(=O)[C@H](Cc2ccc(C)cc2)N2CC/C=C\C[C@@H](C2=O)N(C)C(=O)CN(C)C1=O [PP1782] |  |  | A (a compound having 10 or more and less than 20 is denoted as A) | B (a compound having 3 or more and less than 10 is denoted as B) |  |  |
|  | 21.7 nM | 0.37 nM |  | CCCN1C(=O)CN(C)C(=O)[C@@H]2CCN2C(=O)[C@H]([C@@H](C)CC)NC(=O)[C@H](CC(C)C)N(C)C(=O)C[C@@H](C(=O)N2CCOCC2)N(C)C(=O)[C@H](C2CCCC2)N(C)C(=O)C2(CCC2)NC(=O)[C@@H]2CC(F)(F)CN2C(=O)[C@H](CCc2ccc(C(F)(F)F)c(Cl)c2)NC(=O)CN(C)C(=O)[C@@H]1Cc1ccc(C(F)(F)F)cc1 [PP0404] ([NMeL]I[Aze][Sar][NPrPhe(4-CF3)][Sar][hPhe(3-Cl-4-CF3)][Pro(4,4-F2)][Ac4c][NMeGly(cPent)][NMeD]-Morpholide; lactam N-11) |  |  |  |  | B (a compound having 3 or more and less than 10 is denoted as B) | C (A compound having a KD ratio of 0.1 or more and less than 3 is denoted as C) |
| 0.85 nM | 110 nM |  |  | CCCN1C(=O)CN(C)C(=O)[C@@H]2CCN2C(=O)[C@H]([C@@H](C)CC)NC(=O)[C@H](CC(C)C)N(C)C(=O)C[C@@H](C(=O)N(C)C)NC(=O)[C@H](C2CCCC2)N(C)C(=O)C2(CCC2)NC(=O)[C@@H]2C[C@@H](OCC)CN2C(=O)[C@H](CCc2ccc(C(F)(F)F)c(Cl)c2)NC(=O)CN(C)C(=O)[C@@H]1Cc1ccc(C(F)(F)F)cc1 [PP0378] ([NMeL]I[Aze][Sar][NPrPhe(4-CF3)][Sar][hPhe(3-Cl-4-CF3)][Hyp](Et)[Ac4c][NMeGly(cPent)]D-NMe2; lactam N-11) | B (a compound having 3 or more and less than 10 is denoted as B) | B (a compound having 3 or more and less than 10 is denoted as B) |  |  |  |  |
|  | 438 nM |  | 7.5 nM | CC[C@H](C)[C@@H]1NC(=O)[C@H](CC(C)C)N(C)C(=O)C[C@@H](C(=O)N2CCOCC2)N(CC)C(=O)[C@H](C2CCCC2)N(C)C(=O)C2(CCC2)NC(=O)[C@@H]2CC(F)(F)CN2C(=O)[C@H](CCc2cc(F)c(C(F)(F)F)c(F)c2)NC(=O)CN(C)C(=O)[C@H](Cc2ccc(C(F)(F)F)cc2)N2CCCCC[C@@H](C2=O)N(C)C(=O)CN(C)C1=O [PP0954] | A (a compound having 10 or more and less than 20 is denoted as A) | A (a compound having 10 or more and less than 20 is denoted as A) |  |  |  |  |
|  | 3.7 nM | 0.042 nM |  | CC[C@H](C)[C@@H]1NC(=O)[C@H](CC(C)C)N(C)C(=O)C[C@@H](C(=O)N(C)C)N(C)C(=O)[C@H](C2CCCC2)N(C)C(=O)C2(CCC2)N(C)C(=O)[C@@H]2CCCN2C(=O)[C@H](CCc2cc(F)c(C(F)(F)F)c(F)c2)NC(=O)CN(C)C(=O)[C@H](Cc2ccc(C)cc2)N2CC/C=C\C[C@@H](C2=O)N(C)C(=O)CN(C)C1=O [PP1791] |  |  | A (a compound having 10 or more and less than 20 is denoted as A) | A (a compound having 10 or more and less than 20 is denoted as A) |  |  |
